Results taken from patent publication US7348425B2, “Inhibitors of HCV replication” (Bristol-Myers Squibb Company, priority 2004, dated 2008).

What was measured:
[1] = target: T1, HCV NS5B RdRp genotype 1b (Hepatitis C virus genotype 1b, UniProt Q9WMX2); assay: Modified HCV NS5B RdRp enzyme assay (with preincubation); format: biochemical; details: modified method (with preincubation)
T1 construct: The protein was expressed with an 18 amino acid C-terminal truncation to enhance the solubility; made in house; host or cells: E. coli BL21 (DE3), pET21a
T1 sequence (Q9WMX2 2420-2992): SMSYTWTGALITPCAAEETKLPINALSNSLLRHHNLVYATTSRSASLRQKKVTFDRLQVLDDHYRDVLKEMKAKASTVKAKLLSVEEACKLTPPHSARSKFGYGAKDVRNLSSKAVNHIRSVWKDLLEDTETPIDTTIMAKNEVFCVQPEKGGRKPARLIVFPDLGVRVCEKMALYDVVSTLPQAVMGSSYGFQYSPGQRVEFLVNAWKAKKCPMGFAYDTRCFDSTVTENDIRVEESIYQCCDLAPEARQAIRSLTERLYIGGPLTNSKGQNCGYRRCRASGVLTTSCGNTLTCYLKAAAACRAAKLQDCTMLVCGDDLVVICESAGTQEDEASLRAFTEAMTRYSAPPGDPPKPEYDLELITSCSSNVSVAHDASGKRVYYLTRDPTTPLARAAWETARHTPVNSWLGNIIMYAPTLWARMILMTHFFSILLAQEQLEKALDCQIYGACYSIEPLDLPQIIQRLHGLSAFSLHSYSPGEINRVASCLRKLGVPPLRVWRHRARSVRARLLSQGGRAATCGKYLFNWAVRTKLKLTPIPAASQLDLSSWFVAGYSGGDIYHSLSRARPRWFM
Description: HCVNS5B RdRp cloning, expression, and purification. The cDNA encoding the NS5B protein of HCV, genotype 1b, was cloned into the pET21a expression vector. The protein was expressed with an 18 amino acid C-terminal truncation to enhance the solubility. The E. coli competent cell line BL21 (DE3) was used for expression of the protein. Cultures were grown at 37° C. for ˜4 hours until the cultures reached an optical density of 2.0 at 600 nm. The cultures were cooled to 20° C. and induced with 1 mM IPTG. Fresh ampicillin was added to a final concentration of 50 μg/ml and the cells were grown overnight at 20° C.
Cell pellets (3 L) were lysed for purification to yield 15-24 mgs of purified NS5B. The lysis buffer consisted of 20 mM Tris-HCl, pH 7.4, 500 mM NaCl, 0.5% triton X-100, 1 mM DTT, 1 mM EDTA, 20% glycerol, 0.5 mg/ml lysozyme, 10 mM MgCl2, 15 ug/ml deoxyribonuclease I, and Complete TM protease inhibitor tablets (Roche). After addition of the lysis buffer, frozen cell pellets were resuspended using a tissue homogenizer. To reduce the viscosity of the sample, aliquots of the lysate were sonicated on ice using a microtip attached to a Branson sonicator. The sonicated lysate was centrifuged at 100,000×g for 1 hr at 4° C. and filtered through a 0.2 μm filter unit (Corning).
The protein was purified using three sequential chromatography steps: Heparin sepharose CL-6B, polyU sepharose 4B, and Hitrap SP sepharose (Pharmacia). The chromatography buffers were identical to the lysis buffer but contained no lysozyme, deoxyribonuclease I, MgCl2 or protease inhibitor and the NaCl concentration of the buffer was adjusted according to the requirements for charging the protein onto the column. Each column was eluted with a NaCl gradient which varied in length from 5-50 column volumes depending on the column type. After the final chromatography step, the resulting purity of the enzyme is >90% based on SDS-PAGE analysis. The enzyme was aliquoted and stored at −80° C.
Standard HCV NS5B RdRp enzyme assay. HCV RdRp genotype Ib assays were run in a final volume of 60 μl in 96 well plates (Costar 3912). The assay buffer is composed of 20 mM Hepes, pH 7.5, 2.5 mM KCl, 2.5 mM MgCl2, 1 mM DTT, 1.6 U RNAse inhibitor (Promega N2515), 0.1 mg/ml BSA (Promega R3961), and 2% glycerol. All compounds were serially diluted (3-fold) in DMSO and diluted further in water such that the final concentration of DMSO in the assay was 2%. HCV RdRp genotype 1b enzyme was used at a final concentration of 28 nM. A polyA template was used at 6 nM, and a biotinylated oligo-dT12 primer was used at 180 nM final concentration. Template was obtained commercially (Amersham 27-4110). Biotinylated primer was prepared by Sigma Genosys. ^3H-UTP was used at 0.6 μCi (0.29 μM total UTP). Reactions were initiated by the addition of enzyme, incubated at 30° C. for 60 min, and stopped by adding 25 μl of 50 mM EDTA containing SPA beads (4 μg/μl, Amersham RPNQ 0007). Plates were read on a Packard Top Count NXT after >1 hr incubation at room temperature.
Modified HCV NS5B RdRp enzyme assay. A modified enzyme assay was performed essentially as described for the standard enzyme assay except for the following: The biotinylated oligo dT12 primer was precaptured on streptavidin-coated SPA beads by mixing primer and beads in assay buffer and incubating at room temperature for one hour. Unbound primer was removed after centrifugation. The primer-bound beads were resuspended in 20 mM Hepes buffer, pH 7.5 and used in the assay at final concentrations of 20 nM primer and 0.67 μg/μl beads. Order of addition in the assay: enzyme (14 nM) was added to diluted compound followed by the addition of a mixture of template (0.2 nM), ^3H-UTP (0.6 μCi, 0.29 μM), and primer-bound beads, to initiate the reaction; concentrations given are final. Reactions were allowed to proceed for 4 hours at 30° C.
The IC50 values for compounds were determined using seven different [I]. […]

HCV replicon = HCV replicon FRET assay; format: cell-based; details: Hepatitis C virus; FRET assay; read-out: EC50
Description: The IC50 values for compounds were determined using seven different [I]. IC50 values were calculated from the inhibition using the formula y=A+((B−A)/(1+((C/x)^D))). FRET Assay Preparation. To perform the HCV FRET screening assay, 96-well cell culture plates were used. The FRET peptide (Anaspec, Inc.) (Taliani et al., Anal. Biochem. 240:60-67 (1996), hereby incorporated by reference in its entirety) contains a fluorescence donor, EDANS, near one end of the peptide and an acceptor, DABCYL, near the other end. The fluorescence of the peptide is quenched by […] resonance energy transfer (RET) between the donor and the acceptor, but as the NS3 protease cleaves the peptide the products are released from RET quenching and the fluorescence of the donor becomes apparent. The assay reagent was made as follows: 5× cell Luciferase cell culture lysis reagent from Promega (#E153A) diluted to 1× with dH2O, NaCl added to 150 mM final, the FRET peptide diluted to 20 uM final from a 2 mM stock.
To prepare plates, HCV replicon cells, with or without a Renilla luciferase reporter gene, were trypsinized and placed into each well of a 96-well plate with titrated test compounds added in columns 3 through 12; columns 1 and 2 contained a control compound (HCV protease inhibitor), and the bottom row contained cells without compound. The plates were then placed in a CO2 incubator at 37 degrees C.
Assays. Subsequent to addition of the test compounds described above (FRET Assay Preparation), at various times the plate was removed and Alamar blue solution (Trek Diagnostics, #00-100) was added per well as a measure of cellular toxicity. After reading in a Cytoflour 4000 instrument (PE Biosystems), plates were rinsed with PBS and then used for FRET assay by the addition of 30 ul of the FRET peptide assay reagent described above (FRET Assay Preparation) per well. The plate was then placed into the Cytoflour 4000 instrument which had been set to 340 excite/490 emission, automatic mode for 20 cycles and the plate read in a kinetic mode. Typically, the signal to noise using an endpoint analysis after the reads was at least three-fold. Alternatively, after Alamar blue reading, plates were rinsed with PBS, 50 ul of DMEM (high glucose) without phenol red was added and plates were then used for luciferase assay using the Promega Dual-Glo Luciferase Assay System.
Compound analysis was determined by quantification of the relative HCV replicon inhibition and the relative cytotoxicity values. To calculate cytoxicity values, the average Alamar Blue fluorescence signals from the control wells were set as 100% non-toxic. The individual signals in each of the compound test wells were then divided by the average control signal and multiplied by 100% to determine […]. To calculate the HCV replicon inhibition values, an average background value was obtained from the two wells containing the highest amount of HCV protease inhibitor at the end of the assay period. These numbers were similar to those obtained from naïve Huh-7 cells.
The background numbers were then subtracted from the average signal obtained from the control wells and this number was used as 100% activity. The individual signals in each of the compound test wells were then divided by the averaged control values after background subtraction and multiplied by 100% to determine percent activity. EC50 values for a protease inhibitor titration were calculated as the concentration which caused a 50% reduction in FRET or luciferase activity. The two numbers generated for the compound plate, percent cytoxicity and percent activity were used to determine compounds of interest for further analysis.

SMILES	IC50 [1]	EC50 (HCV replicon)
CN(C)CCNC(=O)C1=Cc2ccccc2-c2c(C3CCCCC3)c3ccc(C(=O)NC4(C(=O)Nc5ccc6c(c5)cc(C(=O)O)n6C)CCCC4)cc3n2C1	0.02 to 1 µM	0.01 to 1 µM
COC(=O)/C=C/c1ccc2[nH]c(C3(NC(=O)c4ccc5c(C6CCCCC6)c6n(c5c4)CC(=O)Nc4ccccc4-6)CCCC3)nc2c1	0.02 to 1 µM	< 0.1 µM
CCOC(=O)/C=C/c1ccc(NC(=O)C2(NC(=O)c3ccc4c(C5CCCCC5)c5n(c4c3)CC(=O)Nc3ccccc3-5)CCNCC2)cc1	0.02 to 1 µM	0.01 to 1 µM
COC(=O)c1ccc2c(C3CCCCC3)c3n(c2c1)CC(=O)N(CCN(C)C)c1ccccc1-3	> 1 µM	1 to 10 µM
CN1C(=O)Cn2c(c(C3CCCCC3)c3ccc(C(=O)NC4(C(=O)Nc5ccc6c(c5)cc(C(=O)O)n6C)CCCC4)cc32)-c2ccccc21	0.02 to 1 µM	0.01 to 1 µM
O=C1Cn2c(c(C3CCCCC3)c3ccc(C(=O)NS(=O)(=O)N4CCCC4)cc32)-c2ccccc2N1	0.02 to 1 µM	0.01 to 1 µM
CN(Cc1ccccc1)S(=O)(=O)NC(=O)c1ccc2c(C3CCCCC3)c3n(c2c1)CC(=O)Nc1ccccc1-3	0.02 to 1 µM	0.01 to 1 µM
O=C(O)/C=C/c1ccc2[nH]c(C3(NC(=O)c4ccc5c(C6CCCCC6)c6c7ccccc7ncn6c5c4)CCCC3)nc2c1	0.02 to 1 µM	0.01 to 1 µM
CN(C)CCN1C(=O)Cn2c(c(C3CCCCC3)c3ccc(C(=O)O)cc32)-c2ccccc21	0.02 to 1 µM	0.01 to 1 µM
COC(=O)/C=C/c1ccc(CN(C)S(=O)(=O)NC(=O)c2ccc3c(C4CCCCC4)c4n(c3c2)CC(=O)Nc2ccccc2-4)cc1	0.02 to 1 µM	0.01 to 1 µM
COC(=O)c1ccc(CN(C)S(=O)(=O)NC(=O)c2ccc3c(C4CCCCC4)c4n(c3c2)CC(=O)Nc2ccccc2-4)cc1	0.02 to 1 µM	0.01 to 1 µM
CN(Cc1ccc(C(=O)O)cc1)S(=O)(=O)NC(=O)c1ccc2c(C3CCCCC3)c3n(c2c1)CC(=O)Nc1ccccc1-3	0.02 to 1 µM	1 to 10 µM
CN(Cc1ccc(/C=C/C(=O)O)cc1)S(=O)(=O)NC(=O)c1ccc2c(C3CCCCC3)c3n(c2c1)CC(=O)Nc1ccccc1-3	0.02 to 1 µM	1 to 10 µM
COC(=O)/C=C/c1ccc(NC(=O)C2(NC(=O)c3ccc4c(C5CCCCC5)c5n(c4c3)CCCc3sc(C)nc3-5)CCCC2)cc1	> 1 µM	> 10 µM
Cc1nc2c(s1)CCCn1c-2c(C2CCCCC2)c2ccc(C(=O)O)cc21	> 1 µM	> 10 µM
